The results in this text go back to paper PMC3555145 (Biomacromolecules, 2012).

For the assay, the system named is Raw 264.7 and HeLa cells. Particulars: rhodamine-labeled polypeptide, n = 3.

Turning to “poly(ethylene glycol)-block-poly(O-pentenyl-L-serine-graft-cysteamine) [PEG112-b-(PPELS70-g-CA)]”, under “2 μg/well”, the “time of maximal cell uptake level post polypeptide treatment” value turned out to be 2 h. Further, for the setting “0.5-5 μg/well for 2 h, 2 μg/well for 0.4-4 h”, the “dependence of cell uptake level on incubation time and feeding amount” value is “increased with incubation time and the feeding amount”.
